Test results: patent US20260007133A1, “HERBICIDAL COMPOSITION COMPRISING AZINE COMPOUNDS” (BASF SE, priority 2022, published 2026)

Columns and labels:
Format in all cases: in vivo
[1] = tested on: Echinochloa crus-galli; experiment: Greenhouse pre-emergence (PRE) herbicidal test on ECHCG; conditions: PRE, 20 DAT; for % activity solo application: ECHCG
[2] = tested on: Euphorbia heterophylla; experiment: Greenhouse post-emergence (POST) herbicidal test on EPHHL; conditions: 20 DAT
Summary of the method: (§1)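 Plants grown in pots of loamy sand (~3.0% humus) to 3–15 cm height, then sprayed with compounds suspended or emulsified in water (formulated as 5% by weight emulsion concentrate). Kept at 10-25° C or 20-35° C by species; injury scored 0–100 (100 = complete destruction) at 20 DAT.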

[3] = tested on: Amaranthus retroflexus; experiment: Greenhouse pre-emergence (PRE) herbicidal test on AMARE; conditions: PRE, 20 DAT; for % activity solo application: AMARE
Method: The culture containers used were plastic pots containing loamy sand with approximately 3.0% of humus as substrate. The seeds of the test plants were sown separately for each species.
The containers were irrigated gently to promote germination and growth and subsequently covered with transparent plastic hoods until the plants had rooted.
Depending on the species, the plants were kept at 10-25° C. and 20-35° C., respectively.
The test period extended over 2 to 4 weeks. During this time, the plants were tended and their response to the individual treatments was evaluated.
Evaluation was carried out using a scale from 0 to 100. 100 means no emergence of the plants, or complete destruction of at least the above-ground parts, and 0 means no damage or normal course of growth. A good herbicidal activity is given at values of at least 70, and very good herbicidal activity is given at values of at least 85.
As indicated application was either post emergent (POST) at the respective growth stage (GS) of the weed (BBCH code), or pre-emergent (PRE). […]

[4] = tested on: Setaria viridis; experiment: Greenhouse pre-emergence (PRE) herbicidal test on SETVI; conditions: PRE, 20 DAT; for % activity solo application: SETVI
Summary of the method: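 Visual rating on a 0 (normal growth) to 100 (no emergence or above-ground kill) scale at 20 DAT. Treatment was pre-emergence spray of aqueous suspension/emulsion right after sowing into loamy sand with ~3.0% humus; covered until rooted, grown at 10-25° C or 20-35° C depending on species.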

[5] = tested on: Lolium multiflorum; experiment: Greenhouse pre-emergence (PRE) herbicidal test on LOLMU; conditions: 20 DAT
Summary of the method: (§2)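 Scoring ran from 0 (normal growth) to 100 (no emergence or above-ground parts fully destroyed) and was done 20 DAT. Application was pre-emergent in pots of loamy sand (~3.0% humus) sown per species. Plants grew at 10-25° C or 20-35° C by species.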

[6] = tested on: Echinochloa crus-galli; experiment: Greenhouse post-emergence (POST) herbicidal test on ECHCG; conditions: Echinochloa crus-galli, post-emergence, 480 h, 20 DAT
Summary of the method: as §1

[7] = tested on: Commelina benghalensis; experiment: Greenhouse pre-emergence (PRE) herbicidal test on COMBE; conditions: 20 DAT; for % activity solo application: COMBE
Summary of the method: as §2

[8] = tested on: Ambrosia artemisiifolia; experiment: Greenhouse pre-emergence (PRE) herbicidal test on AMBEL; conditions: 20 DAT; for % activity solo application: AMBEL
[9] = tested on: Euphorbia heterophylla; experiment: Greenhouse pre-emergence (PRE) herbicidal test on EPHHL; conditions: 20 DAT; for % activity solo application: EPHHL
Summary of the method: as §2

[10] = tested on: Digitaria sanguinalis; experiment: Greenhouse post-emergence (POST) herbicidal test on DIGSA; conditions: 20 DAT; for % activity solo application: DIGSA
Summary of the method: as §1

[11] = tested on: Abutilon theophrasti; experiment: Greenhouse pre-emergence (PRE) herbicidal test on ABUTH; conditions: PRE, 20 DAT; for % activity solo application: ABUTH
Summary of the method: as §2

[12] = tested on: Geranium pusillum; experiment: Greenhouse post-emergence (POST) herbicidal test on GERPU; conditions: Geranium pusillum, post-emergence, 480 h, 20 DAT
Summary of the method: as §1

[13] = tested on: Abutilon theophrasti; experiment: Greenhouse post-emergence (POST) herbicidal test on ABUTH; conditions: POST, ABUTH, 16 gai/ha, 20 DAT
Summary of the method: as §1

[14] = tested on: Alopecurus myosuroides; experiment: Greenhouse pre-emergence (PRE) herbicidal test on ALOMY; conditions: PRE, ALOMY, 20 DAT
Summary of the method: as §2

## COCc1cnc(C2=NC(C)(C(C)C)C(=O)N2)c(C(=O)O)c1 (centres unmarked) [Imazamox, imazamox]
[1]; Echinochloa crus-galli, pre-emergence, 480 h, 1 gai/ha
  pest or weed control at 1 g/ha: 0%
[2]; Euphorbia heterophylla, post-emergence, 480 h, POST, 1 gai/ha
  pest or weed control at 1 g/ha: 10%
[2]; Euphorbia heterophylla, post-emergence, 480 h, POST, 2 gai/ha
  pest or weed control at 2 g/ha: 10%
[3]; Amaranthus retroflexus, pre-emergence, 480 h, 2 gai/ha
  pest or weed control at 2 g/ha: 25%
[4]; Setaria viridis, pre-emergence, 480 h, 2 gai/ha
  pest or weed control at 2 g/ha: 5%
[5]; Lolium multiflorum, pre-emergence, 480 h, PRE, 1 gai/ha
  pest or weed control at 1 g/ha: 0%
[6]; POST, 2 gai/ha
  pest or weed control at 2 g/ha: 55%
[7]; Commelina benghalensis, pre-emergence, 480 h, PRE, 1 gai/ha
  pest or weed control at 1 g/ha: 0%
[7]; Commelina benghalensis, pre-emergence, 480 h, PRE, 2 gai/ha, read-out: % activity
  pest or weed control at 2 g/ha: 0%
[8]; Ambrosia artemisiifolia, pre-emergence, 480 h, PRE, 1 gai/ha
  pest or weed control at 1 g/ha: 0%
[8]; Ambrosia artemisiifolia, pre-emergence, 480 h, PRE, 2 gai/ha, read-out: % activity
  pest or weed control at 2 g/ha: 0%
[9]; Euphorbia heterophylla, pre-emergence, 480 h, PRE, 1 gai/ha
  pest or weed control at 1 g/ha: 10%
[9]; Euphorbia heterophylla, pre-emergence, 480 h, PRE, 2 gai/ha
  pest or weed control at 2 g/ha: 15%
[10]; Digitaria sanguinalis, post-emergence, 480 h, POST, 2 gai/ha
  pest or weed control at 2 g/ha: 55%
[11]; Abutilon theophrasti, pre-emergence, 480 h, 1 gai/ha
  pest or weed control at 1 g/ha: 10%

## CCOC(=O)COc1ccccc1Oc1nc(-n2c(=O)cc(C(F)(F)F)n(C)c2=O)c(F)cc1Cl [2-[2-[[3-chloro-6-[3,6-dihydro-3-methyl-2,6-dioxo-4-(trifluoromethyl)-1(2H)-pyrimidinyl]-5-fluoro-2-pyridinyl]oxy]phenoxy]acetic acid ethyl ester]
[2]; Euphorbia heterophylla, post-emergence, 480 h, EPHHL POST, use rate 0.25 gai/ha
  inhibition at […]: 50%
[2]; Euphorbia heterophylla, post-emergence, 480 h, POST, 0.25 gai/ha
  pest or weed control at […]: 50%
[3]; Amaranthus retroflexus, pre-emergence, 480 h, 0.5 gai/ha
  pest or weed control at 0.5 g/ha: 0%
[4]; Setaria viridis, pre-emergence, 480 h, 0.25 gai/ha
  pest or weed control at […]: 0%
[4]; Setaria viridis, pre-emergence, 480 h, 0.5 gai/ha
  pest or weed control at 0.5 g/ha: 0%
[12]; GERPU POST, use rate 0.5 gai/ha
  inhibition at 0.5 g/ha: 85%
[12]; POST, 0.5 gai/ha
  pest or weed control at 0.5 g/ha: 85%
[5]; Lolium multiflorum, pre-emergence, 480 h, LOLMU PRE, use rate 0.25 gai/ha, read-out: % activity
  inhibition at […]: 0%
[5]; Lolium multiflorum, pre-emergence, 480 h, PRE, 0.25 gai/ha
  pest or weed control at […]: 0%
[5]; Lolium multiflorum, pre-emergence, 480 h, PRE, 0.5 gai/ha
  pest or weed control at 0.5 g/ha: 0%
[6]; ECHCG POST, use rate 0.25 gai/ha
  inhibition at […]: 15%
[6]; ECHCG POST, use rate 0.5 gai/ha, read-out: % activity
  inhibition at 0.5 g/ha: 80%
[7]; Commelina benghalensis, pre-emergence, 480 h, COMBE PRE, use rate 0.25 gai/ha, read-out: % activity
  inhibition at […]: 0%
[7]; Commelina benghalensis, pre-emergence, 480 h, COMBE PRE, use rate 0.5 gai/ha
  inhibition at 0.5 g/ha: 0%
[7]; Commelina benghalensis, pre-emergence, 480 h, PRE, 0.5 gai/ha
  pest or weed control at 0.5 g/ha: 0%
[8]; Ambrosia artemisiifolia, pre-emergence, 480 h, AMBEL PRE, use rate 0.25 gai/ha, read-out: % activity
  inhibition at […]: 0%
[8]; Ambrosia artemisiifolia, pre-emergence, 480 h, AMBEL PRE, use rate 0.5 gai/ha, read-out: % activity
  inhibition at 0.5 g/ha: 0%
[8]; Ambrosia artemisiifolia, pre-emergence, 480 h, PRE, 0.25 gai/ha
  pest or weed control at […]: 0%
[9]; Euphorbia heterophylla, pre-emergence, 480 h, EPHHL PRE, use rate 0.25 gai/ha, read-out: % activity
  inhibition at […]: 5%
[9]; Euphorbia heterophylla, pre-emergence, 480 h, EPHHL PRE, use rate 0.5 gai/ha, read-out: % activity
  inhibition at 0.5 g/ha: 0%
[9]; Euphorbia heterophylla, pre-emergence, 480 h, PRE, 0.25 gai/ha
  pest or weed control at […]: 5%
[9]; Euphorbia heterophylla, pre-emergence, 480 h, PRE, 0.5 gai/ha
  pest or weed control at 0.5 g/ha: 0%
[10]; Digitaria sanguinalis, post-emergence, 480 h, DIGSA POST, use rate 0.5 gai/ha
  inhibition at 0.5 g/ha: 80%
[10]; Digitaria sanguinalis, post-emergence, 480 h, POST, 0.25 gai/ha
  pest or weed control at […]: 15%
[11]; Abutilon theophrasti, pre-emergence, 480 h, 0.25 gai/ha
  pest or weed control at […]: 0%
[11]; Abutilon theophrasti, pre-emergence, 480 h, 0.5 gai/ha
  pest or weed control at 0.5 g/ha: 10%

## FC(F)c1cc(-c2c(Cl)cccc2Oc2ncc(Cl)cn2)on1 [Rimisoxafen, rimisoxafen]
[1]; 4 gai/ha
  % activity solo application: 0%
[1]; 8 gai/ha
  % activity solo application: 0%
[1]; 16 gai/ha
  % activity solo application: 0%
[1]; 32 gai/ha
  % activity solo application: 0%
[2]; POST, EPHHL, 16 gai/ha
  % activity solo application: 15%
[13]
  % activity solo application: 80%
[3]; 8 gai/ha
  % activity solo application: 25%
[3]; 16 gai/ha
  % activity solo application: 75%
[4]; 8 gai/ha
  % activity solo application: 35%
[4]; 16 gai/ha
  % activity solo application: 35%
[14]; 4 gai/ha
  % activity solo application: 0%
[14]; 8 gai/ha
  % activity solo application: 0%
[14]; 16 gai/ha
  % activity solo application: 0%
[14]; 32 gai/ha
  % activity solo application: 0%
[5]; PRE, LOLMU, 8 gai/ha
  % activity solo application: 0%
[7]; PRE, 4 gai/ha
  % activity solo application: 0%
[7]; PRE, 8 gai/ha
  % activity solo application: 10%
[7]; PRE, 16 gai/ha
  % activity solo application: 0%
[7]; PRE, 32 gai/ha
  % activity solo application: 30%
[8]; PRE, 4 gai/ha
  % activity solo application: 0%
[8]; PRE, 8 gai/ha
  % activity solo application: 0%
[8]; PRE, 16 gai/ha
  % activity solo application: 0%
[8]; PRE, 32 gai/ha
  % activity solo application: 0%
[9]; PRE, 8 gai/ha
  % activity solo application: 0%
[9]; PRE, 16 gai/ha
  % activity solo application: 0%
[10]; POST, 4 gai/ha
  % activity solo application: 5%
[10]; POST, 8 gai/ha
  % activity solo application: 5%
[10]; POST, 16 gai/ha
  % activity solo application: 10%
[10]; POST, 32 gai/ha
  % activity solo application: 20%
[11]; 4 gai/ha
  % activity solo application: 0%
[11]; 8 gai/ha
  % activity solo application: 5%
[11]; 16 gai/ha
  % activity solo application: 5%
[11]; 32 gai/ha
  % activity solo application: 35%
